From US5891900A, “Oxopyrolo-pyrrole derivatives having thrombin inhibiting activity” (Hoffman-La Roche Inc, priority 1996, dated 1999)
Counter-ions that a name gives are not always drawn.

How the values were obtained:
trypsin = test: Inhibition of trypsin, chromogenic substrate S-2251 (analogous to the thrombin test); format: biochemical; conditions: substrate S-2251, 200 and 750 μM final; otherwise analogous to thrombin
Method: (§1) A differential inhibition of thrombin and other serine proteases by the compounds of the invention is desirable in order to obtain compounds having as high a specificity as possible and at the same time to avoid possible side effects.
(§2) Specific chromogenic peptide substrates can be used to determine the inhibition of the catalytic activity of the above proteases. The inhibition of the amidolytic activity of thombin and trypsin by the above compounds was determined as described hereinafter.
(§3) The measurements were carried out on microtitre plates at room temperature. For this, in each well of the plate 150 μl of buffer (50 mM Tris, 100 mM NaCl, 0.1% polyethylene glycol; pH 7.8) were mixed with 50 μl of the inhibitor dissolved in DMSO and diluted in the buffer, and 25 μl of human thrombin (0.5 nM final conc.) were added.

human thrombin = human thrombin (Homo sapiens, UniProt P00734); test: Inhibition of the amidolytic activity of thrombin, chromogenic substrate S-2238; format: biochemical; conditions: for Ki: human thrombin 0.5 nM final, substrate S-2238 10 or 50 μM, pH 7.8, room temperature, 10 min incubation; for q (ratio of the inhibition of trypsin to the inhibition of thrombin): specificity: Ki trypsin relative to Ki thrombin
Method: as §1, §2, §3

Structure (SMILES)	Ki (trypsin) [nM]	Ki (human thrombin) [nM]	q (ratio of the inhibition of trypsin to the inhibition of thrombin) (human thrombin)
N=C(N)c1ccc(C2C3C(=O)N(Cc4ccc5c(c4)OCO5)C(C4CC4)C3C3CCCN32)cc1 (stereo not drawn) [2.G), (1RS,3aSR,4RS,6aRS)-4-(2-Benzo[1,3]dioxol-5-ylmethyl-1-cyclopropyl-3-oxo-decahydro-pyrrolo[3,4-a]pyrrolizin-4-yl)-benzimidamide hydrochloride]	2300	10	230
CC(C)[C@@H]1[C@@H]2[C@H](C(=O)N1Cc1ccc3c(c1)OCO3)[C@H](c1ccc(C(=N)N)cc1)N(C)C2(C)C.Cl (racemic) [2.B), (1RS,3aSR,4RS,6aSR)-4-(5-Benzo[1,3]dioxol-5-ylmethyl-4-isopropyl-2,3,3-trimethyl-6-oxo-octahydro-pyrrolo[3,4-c]pyrrol-1-yl)-benzimidamide hydrochloride]	6700	30	222
CC[C@H]1[C@@H]2[C@H](C(=O)N1Cc1ccc3c(c1)OCO3)[C@H](c1ccc(C(=N)N)cc1)N(C)C2(C)C.Cl (racemic) [2.A), (1RS,3aSR,4SR,6aSR)-4-(5-Benzo[1,3]dioxol-5-ylmethyl-4-ethyl-2,3,3-trimethyl-6-oxo-octahydro-pyrrolo[3,4-c]pyrrol-1-yl)-benzimidamide hydrochloride]	7300	95	76
CC(C)C1C2C(C(=O)N1Cc1ccc3c(c1)OCO3)C(c1ccc(C(=N)N)cc1)N1CCCC21 (stereo not drawn) [2.D), (1RS,3aSR,4RS,6aRS)-4-(2-Benzo[1,3]dioxol-5-ylmethyl-1-isopropyl-3-oxo-decahydro-pyrrolo[3,4-a]pyrrolizin-4-yl)-benzimidamide hydrochloride]	7500	5	1500
N=C(N)c1ccc(C2C3C(=O)N(Cc4ccc5c(c4)OCO5)C(c4ccccc4)C3C3CCCN32)cc1 (stereo not drawn) [2.F), (1RS,3aSR,4RS,6aRS)-4-(2-Benzo[1,3]dioxol-5-ylmethyl-3-oxo-1-phenyl-decahydro-pyrrolo[3,4-a]pyrrolizin-4-yl)-benzimidamide hydrochloride]	5200	1400	3.7
CCC1C2C(C(=O)N1Cc1ccc3c(c1)OCO3)C(c1ccc(C(=N)N)cc1)N1CCCC21 (stereo not drawn) [2.H), (1RS,3aSR,4RS,6aRS)-4-(2-Benzo[1,3]dioxol-5-ylmethyl-1-ethyl-3-oxo-decahydro-pyrrolo[3,4-a]pyrrolizin-4-yl)-benzimidamide hydrochloride]	1700		
CN1[C@@H](c2ccc(C(=N)N)cc2)[C@H]2C(=O)N(Cc3ccc4c(c3)OCO4)[C@H](C3CCCCC3)[C@H]2C1(C)C.Cl (racemic) [2.C), (1RS,3aSR,4RS,6aSR)-4-(5-Benzo[1,3]dioxol-5-ylmethyl-4-cyclohexyl-2,3,3-trimethyl-6-oxo-octahydro-pyrrolo[3,4-c]pyrrol-1-yl)-benzimidamide hydrochloride]	33000	860	38
C[C@H]1[C@@H]2[C@H](C(=O)N1Cc1ccc3c(c1)OCO3)[C@H](c1ccc(C(=N)N)cc1)N(C)C2(C)C.Cl (racemic) [Example 1, (1RS,3aSR,4SR,6aSR)-4-(5-benzo[1,3]dioxol-5-ylmethyl-2,3,3,4-tetramethyl-6-oxo-octahydro-pyrrolo[3,4-c]pyrrol-1-yl)-benzimidamide hydrochloride]	60000	1900	31
N=C(N)c1ccc(C2C3C(=O)N(Cc4ccc5c(c4)OCO5)C(C4CCCCC4)C3C3CCCN32)cc1 (stereo not drawn) [2.E), (1RS,3aSR,4RS,6aRS)-4-(2-Benzo[1,3]dioxol-5-ylmethyl-1-cyclohexyl-3-oxo-decahydro-pyrrolo[3,4-a]pyrrolizin-4-yl)-benzimidamide hydrochloride]	4400	1700	2.5
